Patent US10995363B2, “Nucleotide analogs” (ABBOTT MOLECULAR INC., priority 2013, dated 2021)
Values belong to the molecule of their own block, whether it stands above or below them.

How the values were obtained:
[1] = biological target: T1, Therminator II DNA polymerase (Thermococcus sp., UniProt Q56366, A485L/D141A/E143A/Y409V); assay: Polymerase extension assay: incorporation of 3′-O-propargyl-dNTP at the 3′ end of a primer on KRAS template; assay type: biochemical, Thermococcus sp. 9∘N; conditions: 2 mM MnCl2, KRAS template, 35 cycles, size analysis by gel electrophoresis
T1 construct: purchased New England BioLabs
Procedure: During the development of embodiments of the technology provided herein, experiments were conducted to assess the incorporation of 3′-O-propargyl-dNTPs into a nucleic acid by a polymerase. In particular, experiments were conducted to evaluate the accurate incorporation of 3′-O-propargyl-dNTPs into a nucleic acid and to evaluate the terminating activity of the 3′-O-propargyl-dNTPs. To assess these characteristics of the nucleotide analogs provided herein, polymerase extension assays were conducted using a template nucleic acid having a sequence from human KRAS (e.g., KRAS exon 2 and flanking intron sequences) and a complementary primer (Table 2).
To test incorporation of a 3′-O-propargyl-dTTP into a nucleic acid, a polymerase extension reaction mix was assembled comprising 20 mM Tris-HCl, 10 mM (NH4)SO4, 10 mM KCl, 2 mM MnCl2, 0.1% Triton X-100, 200 μmol 3′-O-propargyl-dTTP, 6.25 μmol of primer R_ke2_trP1_T_bio (SEQ ID NO: 2), and 2 units of Therminator II DNA polymerase (New England BioLabs) in a 25-μl final reaction volume. A volume of 0.5 μmol of the KRAS template (SEQ ID NO: 1) was used as template (Table 2). The polymerase extension reaction was performed using a temperature cycling profile comprising exposing the reaction to a temperature of 95° C. for 2 minutes followed by 35 cycles of 95° C. for 15 seconds, 55° C. for 25 seconds, and 65° C. for 35 seconds.
(§1) After the polymerase extension reaction, 1 μl of the reaction mix was used directly for nucleic acid size analysis by gel electrophoresis (e.g., using an Agilent 2100 Bioanalyzer and High Sensitivity DNA Assay Chip).
Additional polymerase extension experiments were performed using the reaction conditions described above and replacing the 3′-O-propargyl-dTTP and the primer R_ke2_trP1_T_bio with 3′-O-propargyl-dATP and the primer R_ke2_trP1_A bio (SEQ ID NO: 3); 3′-O-propargyl-dCTP and the primer R_ke2_trP1_C bio (SEQ ID NO: 5); and 3′-O-propargyl dGTP and the primer R_ke2_trP1_G bio (SEQ ID NO: 4).

[2] = biological target: T1, Therminator II DNA polymerase; assay: Ladder fragment generation with natural dNTPs and one 3′-O-propargyl-dNTP; assay type: biochemical, Thermococcus sp. 9∘N; conditions: natural dNTPs plus one 3′-O-propargyl-dNTP, KRAS template, 50 cycles
Procedure: During the development of embodiments of the technology provided herein, experiments were conducted to assess using the nucleotide analogs of the present technology to generate nucleic acid fragments that terminate at base-specific positions. In particular, reaction mixtures were produced and tested that included both natural dNTPs and each of the 3′-O-propargyl-dNTPs individually.
To test the fragment generation by 3′-O-propargyl-dTTP, a DNA fragment generation reaction mix was prepared comprising 20 mM Tris-HCl, 10 mM (NH4)SO4, 10 mM KCl, 2 mM MnCl2, 0.1% Triton X-100, 1000 μmol dATP, 1000 μmol dCTP, 1000 μmol dGTP, 1000 μmol dTTP, 200 μmol 3′-O-propargyl-dTTP, 6.25 μmol of primer R_ke2_trP1_T_bio (SEQ ID NO: 2), and 2 units of THERMINATOR II DNA polymerase (New England BioLabs) in a 25-μl final reaction volume. A volume of 0.5 μmol of the KRAS template (SEQ ID NO: 1) was used as template. The polymerase extension reaction was performed using a temperature cycling profile comprising exposing the reaction to a temperature of 95° C. for 2 minutes followed by 50 cycles of 95° C. for 15 seconds, 55° C. for 25 seconds, and 65° C. for 35 seconds.
as §1
Additional polymerase extension experiments were performed using the reaction conditions described above and replacing the 3′-O-propargyl-dTTP with 3′-O-propargyl-dATP, 3′-O-propargyl-dCTP, or 3′-O-propargyl dGTP.

3′-O-propargyl-dNTP = assay: Polymerase screening by nucleotide extension assay (incorporation of 3′-O-propargyl-dNTP as substrate); assay type: biochemical; set-up: key: a minus (“−”) indicates that the polymerase did not produce a detectable product incorporating the 3′-O-propargyl dNTP; a single plus (“+”) indicates that the polymerase produced a detectable product incorporating the 3′-O-propargyl dNTP; three plusses (“+++”) indicates that the polymerase produced a substantial amount of 3′-O-propargyl dNTP incorporation product
Excerpt: For example, in some exemplary assays and/or embodiments, compatible polymerases are identified by a polymerase extension reaction (e.g., a single base extension reaction). See, e.g., Ausebel et al. (eds.), Current Protocols in Molecular Biology. New York: John Wiley & Sons, Inc; Sambrook et al. (1989). Molecular Cloning: A Laboratory Manual. (2nd ed.). Cold Spring Harbor: Cold Spring Harbor Laboratory Press.
For example, identifying compatible polymerases comprises providing a polymerase to test and a reaction buffer appropriate for the polymerase. For polymerases obtained from a commercial supplier (e.g., New England BioLabs, United States Biologicals, Promega, Invitrogen, Worthington, Sigma-Aldrich, Fluka, Finnzymes, Roche, 5 Prime, Qiagen, KAPA Biosystems, Thermo Scientific, Agilent, Life Technologies, etc.), the polymerase is often supplied with an appropriate reaction buffer. An exemplary reaction buffer comprises, e.g., a compatible buffer (e.g., 20 mM Tris-HCl), a salt (e.g., 10 mM KCl), a source of magnesium or manganese (e.g., 2 mM MgSO4; 2 mM MnCl2, etc.), a detergent (e.g., 0.1% TRITON X-100) and has a suitable pH (e.g., approximately pH 8.8 at approximately 25° C.). The activities of some polymerases are improved in the presence of other compounds, such as sulfate and other salts (e.g., 10 mM (NH4)2SO4). Reaction mixtures for polymerase extension reactions are typically tested using Mg^2+ or Mn^2+ as the enzyme cofactor.
Polymerases are tested by providing in the reaction mixture a DNA template, a DNA primer that is complementary to the DNA template, and one or more nucleotides and/or nucleotide analogs. Typical concentrations of template and primer are approximately from 1 to 100 nM and typical concentrations of nucleotides and/or nucleotide analogs are approximately from 1 to 125 μM (e.g., 1 to 125 μM for each nucleotide and/or nucleotide analog and/or 1 to 500 μM total concentration of all nucleotides and/or nucleotide analogs). Templates and primers are synthesized by methods known in the art (e.g., using solid supports and phosphoramidite chemistry) and are available from several commercial suppliers (e.g., Integrated DNA Technologies, Coralville, Iowa).
A pre-annealed primer/template is typically produced for testing polymerases. For example, the primer is typically resuspended in a suitable buffer (e.g., Tris-EDTA, pH 8.0) at a suitable concentration, e.g., at 1 to 500 μM (e.g., at 100 μM) and the template is typically resuspended in a suitable buffer (e.g., Tris-EDTA, pH 8.0) at a suitable concentration, e.g., at 1 to 500 μM (e.g., at 100 μM). […] For example, a pre-annealed primer/template is produced by mixing approximately 100 μl of the approximately 1 to 500 μM (e.g., at 100 μM) primer solution to approximately 100 μl of the approximately 1 to 500 μM (e.g., at 100 μM) template solution in approximately 800 μl of an annealing buffer (e.g., 200 mM Tris, 100 mM potassium chloride, and 0.1 mM EDTA, pH 8.45) to provide a milliliter of primer/template solution. One of skill in the art can scale the volumes and concentrations as appropriate for the concentrations and volumes that are appropriate for the particular analysis. Then, an aliquot (e.g., 100 μl) of the primer/template solution is heated to denature intramolecular and/or intermolecular secondary structures (e.g., by heating at approximately 85° C. to 97° C. (e.g., at approximately 95° C.), e.g., for 1 to 5 minutes (e.g., 2 minutes). Next, the aliquot is cooled to an annealing temperature (e.g., 20° C. to 60° C. (e.g., 25° C.) and incubated for 1 to 10 minutes (e.g., for approximately 5 minutes) to allow the primer and template to anneal to form a primer/template. The primer/template can be diluted in an appropriate substrate dilution buffer (e.g., 20 mM Tris, 10 mM potassium chloride, and 0.01 mM EDTA, pH 8.45; e.g., a 1 to 10 dilution of the annealing buffer described above) for storage. […]

T1 sequence (Q56366 whole entry D141A/E143A/Y409V/A485L): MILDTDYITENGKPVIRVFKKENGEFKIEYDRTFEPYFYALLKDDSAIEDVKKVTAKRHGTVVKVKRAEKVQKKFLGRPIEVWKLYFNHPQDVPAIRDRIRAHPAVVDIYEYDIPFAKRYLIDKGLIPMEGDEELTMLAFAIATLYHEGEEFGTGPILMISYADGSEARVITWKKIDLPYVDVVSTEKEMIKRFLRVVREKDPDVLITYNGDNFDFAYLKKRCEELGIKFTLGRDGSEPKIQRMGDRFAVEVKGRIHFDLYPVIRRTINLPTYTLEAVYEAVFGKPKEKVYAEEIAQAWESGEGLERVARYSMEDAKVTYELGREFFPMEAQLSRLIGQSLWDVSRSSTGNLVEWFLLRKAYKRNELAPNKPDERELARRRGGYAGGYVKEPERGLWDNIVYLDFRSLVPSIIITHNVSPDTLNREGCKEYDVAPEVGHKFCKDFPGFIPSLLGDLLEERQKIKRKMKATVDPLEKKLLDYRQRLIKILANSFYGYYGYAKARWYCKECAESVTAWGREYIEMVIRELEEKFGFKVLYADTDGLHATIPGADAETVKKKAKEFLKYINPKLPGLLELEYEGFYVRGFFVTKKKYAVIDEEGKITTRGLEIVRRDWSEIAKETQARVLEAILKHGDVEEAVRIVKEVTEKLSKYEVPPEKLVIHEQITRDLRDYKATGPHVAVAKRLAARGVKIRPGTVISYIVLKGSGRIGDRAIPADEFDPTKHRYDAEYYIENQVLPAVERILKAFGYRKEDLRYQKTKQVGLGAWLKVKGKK

product incorporating the 3′-O-propargyl dNTP (3′-O-propargyl-dNTP; co-factor Mg^2+): − | product incorporating the 3′-O-propargyl dNTP (3′-O-propargyl-dNTP; co-factor Mn^2+): −
Molecule: Amplitaq Gold: polymerase enzyme sold under the trade name Ampli-Taq (Life Technologies)

product incorporating the 3′-O-propargyl dNTP (3′-O-propargyl-dNTP; co-factor Mg^2+): − | product incorporating the 3′-O-propargyl dNTP (3′-O-propargyl-dNTP; co-factor Mn^2+): −
B1: rTth: rTth DNA polymerase (protein, UniProt P52028 1-834, looked up)
DNA polymerase I, thermostable: MEAMLPLFEPKGRVLLVDGHHLAYRTFFALKGLTTSRGEPVQAVYGFAKSLLKALKEDGYKAVFVVFDAKAPSFRHEAYEAYKAGRAPTPEDFPRQLALIKELVDLLGFTRLEVPGYEADDVLATLAKKAEKEGYEVRILTADRDLYQLVSDRVAVLHPEGHLITPEWLWEKYGLRPEQWVDFRALVGDPSDNLPGVKGIGEKTALKLLKEWGSLENLLKNLDRVKPENVREKIKAHLEDLRLSLELSRVRTDLPLEVDLAQGREPDREGLRAFLERLEFGSLLHEFGLLEAPAPLEEAPWPPPEGAFVGFVLSRPEPMWAELKALAACRDGRVHRAADPLAGLKDLKEVRGLLAKDLAVLASREGLDLVPGDDPMLLAYLLDPSNTTPEGVARRYGGEWTEDAAHRALLSERLHRNLLKRLEGEEKLLWLYHEVEKPLSRVLAHMEATGVRLDVAYLQALSLELAEEIRRLEEEVFRLAGHPFNLNSRDQLERVLFDELRLPALGKTQKTGKRSTSAAVLEALREAHPIVEKILQHRELTKLKNTYVDPLPSLVHPRTGRLHTRFNQTATATGRLSSSDPNLQNIPVRTPLGQRIRRAFVAEAGWALVALDYSQIELRVLAHLSGDENLIRVFQEGKDIHTQTASWMFGVPPEAVDPLMRRAAKTVNFGVLYGMSAHRLSQELAIPYEEAVAFIERYFQSFPKVRAWIEKTLEEGRKRGYVETLFGRRRYVPDLNARVKSVREAAERMAFNMPVQGTAADLMKLAMVKLFPRLREMGARMLLQVHDELLLEAPQARAEEVAALAKEAMEKAYPLAVPLEVEVGMGEDWLSAKG

product incorporating the 3′-O-propargyl dNTP (3′-O-propargyl-dNTP; co-factor Mg^2+): − | product incorporating the 3′-O-propargyl dNTP (3′-O-propargyl-dNTP; co-factor Mn^2+): +
B2: 9° N: 9∘N DNA Polymerase (NEB) (protein, UniProt Q56366 1-775, looked up)
DNA polymerase: MILDTDYITENGKPVIRVFKKENGEFKIEYDRTFEPYFYALLKDDSAIEDVKKVTAKRHGTVVKVKRAEKVQKKFLGRPIEVWKLYFNHPQDVPAIRDRIRAHPAVVDIYEYDIPFAKRYLIDKGLIPMEGDEELTMLAFDIETLYHEGEEFGTGPILMISYADGSEARVITWKKIDLPYVDVVSTEKEMIKRFLRVVREKDPDVLITYNGDNFDFAYLKKRCEELGIKFTLGRDGSEPKIQRMGDRFAVEVKGRIHFDLYPVIRRTINLPTYTLEAVYEAVFGKPKEKVYAEEIAQAWESGEGLERVARYSMEDAKVTYELGREFFPMEAQLSRLIGQSLWDVSRSSTGNLVEWFLLRKAYKRNELAPNKPDERELARRRGGYAGGYVKEPERGLWDNIVYLDFRSLYPSIIITHNVSPDTLNREGCKEYDVAPEVGHKFCKDFPGFIPSLLGDLLEERQKIKRKMKATVDPLEKKLLDYRQRAIKILANSFYGYYGYAKARWYCKECAESVTAWGREYIEMVIRELEEKFGFKVLYADTDGLHATIPGADAETVKKKAKEFLKYINPKLPGLLELEYEGFYVRGFFVTKKKYAVIDEEGKITTRGLEIVRRDWSEIAKETQARVLEAILKHGDVEEAVRIVKEVTEKLSKYEVPPEKLVIHEQITRDLRDYKATGPHVAVAKRLAARGVKIRPGTVISYIVLKGSGRIGDRAIPADEFDPTKHRYDAEYYIENQVLPAVERILKAFGYRKEDLRYQKTKQVGLGAWLKVKGKK

Second part, the molecule before the results:

Molecule: C#CCO[C@H]1C[C@H](n2cnc3c(N)ncnc32)O[C@@H]1COP(=O)(O)OP(=O)(O)OP(=O)(O)O [3′-O-propargyl-dATP, 3′-O-propargyl-2′-deoxyadenosine-5′-triphosphate]
incorporation at the 3′ end of the primer [1]: successful incorporation | generation of nucleic acid fragments terminated at base-specific positions [2]: generated populations of nucleic acid fragments having a range of sizes corresponding to the expected lengths

Molecule: C#CCO[C@H]1C[C@H](n2ccc(N)nc2=O)O[C@@H]1COP(=O)(O)OP(=O)(O)OP(=O)(O)O [3′-O-propargyl-dCTP, 3′-O-propargyl-2′-deoxycytidine-5′-triphosphate]
incorporation at the 3′ end of the primer [1]: successful incorporation | generation of nucleic acid fragments terminated at base-specific positions [2]: generated populations of nucleic acid fragments having a range of sizes corresponding to the expected lengths

Molecule: C#CCO[C@H]1C[C@H](n2cnc3c(=O)[nH]c(N)nc32)O[C@@H]1COP(=O)(O)OP(=O)(O)OP(=O)(O)O [3′-O-propargyl-dGTP, 3′-O-propargyl-2′-deoxyguanosine-5′-triphosphate]
incorporation at the 3′ end of the primer [1]: successful incorporation | generation of nucleic acid fragments terminated at base-specific positions [2]: generated populations of nucleic acid fragments having a range of sizes corresponding to the expected lengths
